Here are results for three molecules from US9399788B2, “Method for inspecting susceptibility of bacteria or fungi to antimicrobial drug and system for use in the same” (priority 2011, dated 2016).

In assay [1] the test system is #2 strain of Pseudomonas aeruginosa (multi-drug resistant strain). The assay can be described thus: MIC by method using micro-device 1 (microscope observation of growth and shape in flow channel). The following applies: for MIC: Pseudomonas aeruginosa, read-out: MIC (minimum inhibitory concentration). It is filed as cell-based. The protocol: Thus, antimicrobial drug solutions were prepared.
Pseudomonas aeruginosa was pre-cultured at 37° C. for 24 hours using a Mueller-Hinton Agar (Becton, Dickinson and Company) plate. A colony was suspended in a Mueller-Hinton broth so as to have MacFarland=0.5 (OD600=0.132). As Pseudomonas aeruginosa, multi-drug resistant strains #2 and #5 (available from BML) and an S1 strain (susceptibility strain, available from BML) were used.
The antimicrobial drug solution obtained in the (2) above and the culture solution obtained in the (3) above were mixed at a volume ratio of 1 9, and 1 μL of a resultant mixture was injected into each inlet of a micro-device 1. As a control, sterile water as a substitute for the antimicrobial drug solution and the culture solution were mixed at a volume ratio of 1:9, and 1 μL of a resultant mixture was injected into an inlet of the micro-device 1. Then, the micro-device 1 was placed in a petri dish, and the petri dish was placed in an airtight container. Kimwipe (Trade Mark) containing water was placed in each of the petri dish and the airtight container. The airtight container was placed in an incubator at 37° C. and incubated for 3 hours. The relative humidity of each of the airtight container and the petri dish was 97%.
The micro-device 1 was taken out of the airtight container, and an increase or decrease in the amount of bacteria and a change in shape relative to the control in an observation area was checked by a microscope, and the MIC (minimum inhibitory concentration) was determined.

Assay [2] shares this test system. The assay can be described thus: MIC by broth microdilution method according to the CLSI standards (standard method). It is filed as cell-based.
The mark [3] stands for this setting: method using the micro-device, 37° C., 3 hours incubation.

In brackets after ≈: the same amount, converted by molar mass.

Regarding `NCC[C@H](O)C(=O)N[C@@H]1C[C@H](N)[C@@H](O[C@H]2O[C@H](CN)[C@@H](O)[C@H](O)[C@H]2O)[C@H](O)[C@H]1O[C@H]1O[C@H](CO)[C@@H](O)[C@H](N)[C@H]1O` [AMK, Amikacin], the MIC in assay [1] (setting [3]) was at least 32 µg/mL; in assay [2] (Pseudomonas aeruginosa, standard method (broth microdilution, CLSI), read-out: MIC (minimum inhibitory concentration)), 64 µg/mL (≈ 109 µM).
Take Imipenem/Cilastatin [IPM]: the “determination based on the break point of CLSI” value in assay [1] (MIC by method using the micro-device) and in assay [2] (MIC by standard method) was “Resistance (R)” each time. The “MIC (minimum inhibitory concentration)” value in assay [1] (setting [3]) amounted to 16 µg/mL; in assay [2] (standard method (broth microdilution, CLSI)), 32 µg/mL.
With `O=C(O)c1cn(C2CC2)c2cc(N3CCNCC3)c(F)cc2c1=O` [CPFX, Ciprofloxacin], the MIC in assay [1] (setting [3]) was at least 4 µg/mL.
